Laboratory results taken from patent publication EP4269424A1, “NOVEL ANTIVIRAL COMPOUNDS AND USE THEREOF” (priority 2022, dated 2023).
No end group written: not given here.

How the values were obtained:
[1] = test system: Vero E6 cells
[2] = biological target: G3BP1; format: binding, human

Row | Compound | cell viability [1] | Kd [2]
1 | CC[C@H](C)[C@H](NC(=O)CNC(=O)[C@H](CO)NC(=O)[C@H](C)NC(=O)[C@H](CC(C)C)NC(=O)[C@H](C)NC(=O)[C@H](CC(=O)O)NC(=O)[C@@H](NC(=O)[C@H](CCC(=O)O)NC(=O)[C@H](Cc1c[nH]cn1)NC(=O)[C@H](CCC(=O)O)NC(=O)[C@H](CC(=O)O)NC(=O)[C@H](Cc1ccccc1)NC(=O)[C@H](CC(=O)O)NC(=O)CNC(=O)[C@H](Cc1ccccc1)NC(=O)[C@@H](NC(=O)[C@H](CC(C)C)NC(=O)[C@H](CCCNC(=N)N)NC(=O)[C@H](CCCNC(=N)N)NC(=O)[C@H](CCCNC(=N)N)NC(=O)[C@H](CCC(N)=O)NC(=O)[C@H](CCCNC(=N)N)NC(=O)[C@H](CCCNC(=N)N)NC(=O)[C@H](CCCCN)NC(=O)[C@H](CCCCN)NC(=O)[C@H](CCCNC(=N)N)NC(=O)CNC(=O)[C@@H](N)Cc1ccc(O)cc1)[C@@H](C)O)C(C)C)C(=O)N[C@H](C(=O)N[C@@H](Cc1ccccc1)C(=O)NCC(=O)N[C@@H](CC(=O)O)C(=O)N[C@@H](Cc1ccccc1)C(=O)N[C@@H](CC(=O)O)C(=O)N[C@@H](CC(=O)O)C(=O)O)[C@@H](C)O [G3BPi WT] | not affected | –
2 | CC[C@H](C)[C@H](NC(=O)CNC(=O)[C@H](CO)NC(=O)[C@H](C)NC(=O)[C@H](CC(C)C)NC(=O)[C@H](C)NC(=O)[C@H](CCC(=O)O)NC(=O)[C@H](Cc1c[nH]cn1)NC(=O)[C@H](CCC(=O)O)NC(=O)[C@H](CC(=O)O)NC(=O)[C@H](Cc1ccccc1)NC(=O)[C@H](CC(=O)O)NC(=O)CNC(=O)[C@H](Cc1ccccc1)NC(=O)[C@@H](NC(=O)[C@@H](N)CC(C)C)[C@@H](C)O)C(=O)N[C@H](C(=O)N[C@@H](Cc1ccccc1)C(=O)NCC(=O)N[C@@H](CC(=O)O)C(=O)N[C@@H](Cc1ccccc1)C(=O)N[C@@H](CC(=O)O)C(=O)N[C@@H](CC(=O)O)C(=O)N[C@@H](Cc1c[nH]c2ccccc12)C(=O)O)[C@@H](C)O [G3BPi spacer2] | – | 4.4 µM
3 | LTFGDFTGSTGSTGSTGITFGDFDDW [G3BPi spacer3] | – | 2.4 µM
